Laboratory results published in patent publication US5569598A (Lucky Limited Co., priority 1993, dated 1996).
Residues, ends and D or L forms follow the SMILES beside them. *: point of attachment. pNA = O=[N+]([O-])c1ccc(N*)cc1

Legend:
[1] = tested on: aminopeptidase; test: Substrate specificity of the aminopeptidase (paranitroanilide substrates); assay type: biochemical, Streptomyces thermonitrificans; settings: substrate 10 mM, 1 unit aminopeptidase, 100 mM Tris buffer pH 8.0, 37° C.; activity to leucine-paranitroanilide as 100%
Excerpt: (§1) Enzymol., 19, 514-521(1970).
The substrate specificity of the aminopeptidase was examined as follows. […] The reaction time was regulated in accordance with the substrate so that paranitroanilide is produced in a fixed rate.

[2] = WHO-supplied reference, literature value; cited from earlier work
[3] = tested on: aminopeptidase; test: Effect of orthophenanthroline on the enzyme activity; assay type: biochemical, Streptomyces thermonitrificans; settings: 37° C., 1 minute, 0 mM = 100
Excerpt: as §1

Row | Activity(%) of the aminopeptidase according to the substrate [1] [%] | Compound | other results
1 | 100 | CC(C)C[C@H](N)C(=O)Nc1ccc([N+](=O)[O-])cc1 [leucine-paranitroanilide] | –
2 | 3.60 | CSCC[C@H](N)C(=O)Nc1ccc([N+](=O)[O-])cc1 [methionine-paranitroanilide] | –
3 | 0.04 | NCC(=O)Nc1ccc([N+](=O)[O-])cc1 [glycine-paranitroanilide] | –
4 | – | pituitary gland-derivedhuman growth hormone: pituitary gland-derived human growth hormone supplied by World Health Organization | potency [2]: 2.5 IU/mg
5 | – | c1cnc2c(c1)ccc1cccnc12 [orthophenanthroline] | Activity(%) ([3]; orthophenanthroline 1 mM): 27%; Activity(%) ([3]; orthophenanthroline 5 mM): 2%
6 | 0.80 | NCC(=O)N1CCC[C@H]1C(=O)Nc1ccc([N+](=O)[O-])cc1 [glycine-proline-paranitroanilide] (H-Gly-Pro-pNA) | –
7 | 0.11 | NCC(=O)N[C@@H](Cc1ccccc1)C(=O)Nc1ccc([N+](=O)[O-])cc1 [glycine-phenylalanine-paranitroanilide] (H-Gly-Phe-pNA) | –
8 | 0.60 | C[C@H](N)C(=O)Nc1ccc([N+](=O)[O-])cc1 [alanine-paranitroanilide] | –
9 | 0.03 | NCCCC[C@H](N)C(=O)Nc1ccc([N+](=O)[O-])cc1 [lysine-paranitroanilide] | –
